Several values for one entry are separate records, joined by “and”; a condition that tells them apart may be missing. Equal values may be shown once. Marks after values point to notes of the source that are not given here.

One assay deals with VERO cells. Kind of assay: MTT cytotoxicity assay, Vero. It counts as cell-based, African green monkey. The settings on record: Chlorocebus sabaeus, 48 h, mean ± SEM of three experiments. The protocol:
(§1) Human colorectal carcinoma cell line (HCT116) and African green monkey kidney epithelial cells (VERO) were obtained from National Centre for Cell Science, Pune, MH, India. For their maintenance, the cells were grown in Dulbecco's Modified Eagle's Medium (DMEM) which was supplemented with 10% fetal bovine serum (FBS) and 1 × penicillin/streptomycin at 37°C in CO2 incubator (NU-5501E/G, NuAire Inc., Plymouth, MN, USA) in a humidified atmosphere of 5% CO2 and 95% air.
(§2) Cytotoxicity for the synthesized analogues was determined using MTT assay. In brief, HCT116 and VERO cells were harvested from the tissue culture flask and seeded in sterile 96 well plates at a density of 5000 cells per well. After overnight adherence, different concentrations of test compounds were added and incubated for 48 h. Next, 50 µl of the MTT reagent (HiMedia Laboratories, Mumbai, India) (2 mg/ml in the sterile phosphate buffer saline (PBS)) was added into each well and incubated for 3 h. The formazan crystals formed were solubilized using 100% dimethyl sulfoxide (DMSO), and the optical density was measured at 540 nm using the microplate reader (ELx800, BioTek Instruments Inc., Winooski, VT, USA).

Assay [1] deals with HCT116 cells. Put plainly: MTT cytotoxicity assay, HCT116. Format: cell-based, human. The following applies: Homo sapiens, HCT-116, 48 h, mean ± SEM of three experiments. The protocol:
as §1, §2

The subject of assay [2] is HDAC enzyme in HCT116 cells. Kind of assay: Whole cell HDAC inhibition assay. It counts as cell-based. The settings on record: Homo sapiens, HCT-116, HCT116, 18 h treatment, mean ± SEM of three experiments. The protocol: Confluent HCT116 cells were harvested and seeded in 96 well sterile black well plates at a density of 2000 cells per well and incubated overnight. Furthermore, the cells were treated with different concentrations of test compounds for a period of 18 h followed by the addition of […] BOC-Ac-Lys-AMC substrate and incubated for 1 h. […] The reaction was then allowed to proceed for 15 min at 37°C. Finally, the fluorescence intensity was measured at 360 nm excitation and 460 nm emission using a fluorescence microplate reader (FLx800, BioTek Instruments Inc., Winooski, VT, USA).

In the next assay the test system is DMH-induced colon cancer. It counts as in vivo, Wistar rats. The settings on record: 5-FU 10 mg/kg i.p. The protocol:
The two test compounds (QMJ-2 and QMJ-5) and quercetin were suspended in 0.25% w/v sodium carboxymethyl cellulose (CMC) and were administered orally (p.o.). 5-Fluorouracil (5-FU) which was used as a standard was procured in the form of injection and was administered intraperitonially (i.p.).
Colon cancer in experimental animals was induced using the highly specific carcinogen DMH, with few modifications from the previously described procedure. DMH was administered at a dose of 30 mg/kg i.p. once a week for 20 weeks. The incidence of aberrant crypt foci (ACF) and adenocarcinoma were confirmed by sacrificing few animals after 20 weeks of induction with DMH. Furthermore, the animals were randomized into five experimental groups, and various treatments were administered for a period of 21 days followed by the assessment of different parameters in the experimental animals.
(1) Experimental Groups • Group 1: animals received 0.25% CMC in water p.o. • Group 2: animals received 0.25% CMC in water p.o. (DMH control) • Group 3: animals received 5-FU at 10 mg/kg i.p. • Group 4: animals received quercetin at 100 mg/kg p.o. • Group 5: animals received QMJ-2 at 100 mg/kg p.o. • Group 6: animals received QMJ-5 at 100 mg/kg p.o.
(2) ACF Formation and Adenocarcinoma Incidence. The entire colon was excised from the experimental animals and was used to study the incidence of adenocarcinoma. The count and size were noted from each animal. For ACF formation, the distal part of the colon was excised, and the tissue was then cut open and fixed with 10% buffered formalin for 12 h. Following this, the tissue was stained with 0.1% methylene blue in PBS for 5 min. The tissues were then observed under microscope for ACF formation and were calculated as the number of counts/5 cm^2 in colon tissue.
(3) Colon Weight/Length Ratio and Organ Index. Length of the excised colon was measured in centimeters, and weight was measured in g. Colon weight/length ratio was then calculated. For the determination of organ index, major organs including spleen, liver, and kidney of the experimental animals were weighed in g and the respective index was calculated. […]

The next assay has as its system p21^Waf1/Cip1. Put plainly: Western blotting, p21Waf1/Cip1 expression. It counts as cell-based, human. The following applies: HCT116 cells, 24 h, compared to normal control. The protocol: (§3) After various treatments for 24 h, cells were lysed, and protein quantification of the lysates was estimated using the BCA™ kit (Thermo Fisher Scientific Inc., Waltham, MA, USA). Proteins samples (30 µg) were resolved on a 10% SDS-PAGE and transferred onto a PVDF membrane and blocked with 5% nonfat milk in TBST (tris-buffered saline with Tween-20) buffer for 1 h followed by washing in TBST buffer. The membrane was then probed with primary antibodies (GAPDH, HDAC8, p21^Waf1/Cip1, and acetyl-histone H3[Ac-Lys^9]) and incubated overnight at 4°C. The membrane was washed with TBST buffer and incubated with horseradish peroxidase-conjugated secondary antibody for 1 h at room temperature. Signal was captured using SuperSignal™ West Pico Plus chemiluminescent substrate (Thermo Fischer Scientific Inc., Waltham, MA, USA) on gel documentation system (G : BOX Chemi XRQ, Syngene).

Assay [3] has as its system HCT116 cells. Kind of assay: Annexin V staining. Format: cell-based, human. The settings on record: SAHA 5 µM, quercetin 100 µM, QMJ-2 100 µM, QMJ-5 50 µM, normal control 21.30%. The protocol: Mechanism of cell death induced by synthesized analogues was determined using annexin V staining. In brief, as per annexin V flow cytometry kit protocol (#MCH100105), 1 × 10^6 cells were seeded in a cell culture dish and after overnight adherence, were incubated with test compounds. Cells were then detached by trypsinization, centrifuged, and washed with PBS. Cell suspension (100 µl) was mixed with Muse annexin V reagent (100 µl) and incubated for 20 min at room temperature. The stained cells were quantitatively analyzed for live, early, and late apoptosis using Muse cell analyzer (#0500-3115 Merck Millipore).

The subject of assay [4] is HCT116 cells. Kind of assay: Cell cycle analysis. It counts as cell-based, human. The settings on record: HCT116, 48 h; SAHA 5 µM, quercetin 100 µM, QMJ-2 100 µM, QMJ-5 50 µM; normal control 29.2%. The protocol:
Cell cycle analysis was performed to estimate the effect of synthesized analogues on the different phases of the cell cycle. In brief, 1 × 10^6 cells were seeded in the cell culture dish and allowed to attach overnight followed by incubation with test compounds. After 48 h, the cells were detached by trypsinization, centrifuged, and washed with PBS. The cell pellets were fixed in 70% v/v ice cold ethanol and stored at −20°C for 24 h. After fixing, the pellets were dislodged in PBS and stained with propidium iodide solution and analyzed using Accuri C6 flow cytometer (BD Biosciences, San Jose, CA, USA).

The test system of a further assay is HDAC8. Kind of assay: Western blotting, HDAC8 expression. It counts as cell-based, human. The settings on record: HCT116 cells, 24 h, compared to normal control. The protocol:
as §3

Assay [5] concerns caspase 3/7 in HCT116 cells. Kind of assay: Caspase 3/7 activation assay. Format: cell-based, human. The following applies: SAHA 5 µM, quercetin 100 µM, QMJ-2 100 µM, QMJ-5 50 µM, normal control 24.60%. The protocol:
The downstream signaling pathway of apoptosis was determined using the caspase 3/7 activation assay. In brief, as per the caspase 3/7 activation kit protocol (#MCH100108), 1 × 10^6 cells were seeded in the cell culture dish and after overnight adherence, were incubated with the test compounds. The cells were detached by trypsinization, centrifuged, and washed with PBS. Cell suspension (50 µl) was mixed with the caspase 3/7 antibody reagent (5 µl) and incubated at 37°C temperature for 30 min. 7-AAD (7-amino-actinomycin D) working solution (150 µl) was added, and stained cells were then analyzed in Muse Cell Analyzer (#0500-3115 Merck Millipore).

The next assay deals with acetyl histone H3K9. Kind of assay: Western blotting, acetyl histone H3K9 expression. It counts as cell-based, human. The settings on record: HCT116 cells, 24 h, compared to normal control. The protocol:
as §3, with “Syngene). The protein band densities were estimated using the software ImageJ (version 1.46r, NIH, Bethesda, MD, USA).” for “Syngene).”

In the case of `Cc1ccc2oc(-c3ccc(N(C)C)cc3)c(O)c(=O)c2c1` [QMJ-3, 2-[4-(Dimethylamino)phenyl]-3-hydroxy-6-methyl-4H-1-benzopyran-4-one], the IC50 is 80.1 ± 3.7 µM with VERO cells, 70.3 ± 4.1 µM in the assay with HCT116 cells [1] and 1124 ± 6.2 µM in assay [2].
As for `COc1ccc2c(=O)c(O)c(-c3ccc(C)cc3)oc2c1` [QMJ-6, 3-Hydroxy-7-methoxy-2-(4-methylphenyl)-4H-1-benzopyran-4-one], the values for the IC50 (with VERO cells; in the assay on HCT116 cells [1]; in [2]) were 153 ± 2.3 µM, 94 ± 2.1 µM and 984.2 ± 2.5 µM, respectively.
As for `O=c1[nH]cc(F)c(=O)[nH]1` [5-FU, 5-Fluorouracil, reference compound], the “ACF/5 cm^2” value in the assay on DMH-induced colon cancer (21 days treatment, quercetin, QMJ-2, QMJ-5 100 mg/kg p.o., DMH control 25 ± 2.1, mean ± SEM of six animals) was 10 ± 1.3 /5 cm^2 and 10 ± 1.3^a /5 cm^2. For the same compound, the colon weight/length ratio entry in the assay on DMH-induced colon cancer (compared with DMH control, others 100 mg/kg p.o., 21 days) was “significantly (p < 0.05) reduced”. For the same compound, the Adenocarcinoma in the assay on DMH-induced colon cancer (count in colon, 21 days treatment, quercetin, QMJ-2, QMJ-5 100 mg/kg p.o., DMH control 17 ± 1.7, mean ± SEM of six animals) was 8 ± 1.1^a.
On to `CN(C)c1ccc(-c2oc3ccccc3c(=O)c2O)cc1` [QMJ-1, 2-[4(Dimethylamino)phenyl]-3-hydroxy-4H-1-benzopyran-4-one], for which the IC50 was 186 ± 4.9 µM in the assay on VERO cells, 102 ± 1.8 µM in the assay on HCT116 cells [1] and 1023 ± 5.2 µM in assay [2].
As for `O=C(CCCCCCC(=O)Nc1ccccc1)NO` [SAHA, reference compound], the “expression of p21^Waf1/Cip1” value in the assay with p21^Waf1/Cip1 is “increased”. The “percentage of cells undergoing late apoptosis (Late Apop./Dead, annexin V)” value with HCT116 cells [3] is 27.65%. In the assay with HCT116 cells [4], the “percentage of cells in G2/M phase” value is on record as 37.5%. For the same compound, the HDAC8 expression entry in the assay on HDAC8 is listed as “significant reduction”. Moreover, the “percentage of apoptotic cells (Apoptotic/Dead, caspase 3/7)” value in [5] was 56.30%. Moreover, the “expression of acetylated histone H3K9” value in the assay with acetyl histone H3K9 is “significant increase”.
On to `Cc1ccc(-c2oc3ccc(C)cc3c(=O)c2O)cc1` [QMJ-4, 3-Hydroxy-6-methyl-2-(4-methylphenyl)-4H-1-benzopyran-4-one], for which the IC50 in the assay on VERO cells was above 400 µM; with HCT116 cells [1], above 400 µM; in [2], 1011 ± 3.4 µM.
